Here are results for two compounds from patent publication US20220175762A1, “IMMUNE MODULATORY COMPOSITIONS AND METHODS FOR TREATING CANCERS” (Birdie Biopharmaceuticals, Inc., priority 2019, published 2022).

Experiment [1] concerns C26 colon tumor cell line. Nature of the experiment: In vivo tumor cell killing, C26 syngeneic tumor model, cyclophosphamide with TLRL combination therapy. On the set-up: dose or concentration left out as unconfirmed. The note with it: C26 cells s.c. in BALB/c mice; cyclophosphamide i.p., TLRL (resiquimod) i.v., or both; once weekly for three times; FIG. 1B.
Method: FIG. 1A-D depicts evaluation of the antitumor effects of Cyclophosphamide/TLRL combination therapy in syngeneic tumor model. FIG. 1A: Scheme of therapy protocol developed to treat C26 tumor. The treatment was initiated at d10 with tumor size 100-120 mm^3 following tumor challenges, and was administered weekly for 3 cycles starting at day 10. FIG. 1B: Antitumor effects of systemic TLRL (Resiquimod) in C26 tumor model. 4×10^5 cells were inoculated subcutaneously in Balb/c mice. After the tumor was allowed to grow for 10 days, groups of 8 mice were treated with Vehicle or with intraperitoneally administration of 1 mg of Cyclophosphamide, or with intravenously administered 1.6 g of TLRL or combination therapy at the dose shown. The compound was administered weekly for three cycles. The data are represented by the median tumor volume measurements of each group. Data for each group of 8 mice are expressed as means±SD. Statistical comparisons were performed using Student's t-Test. […]
All BALB/c mice were maintained under specific pathogen free conditions and used between 6-16 weeks of age in accordance to the animal experimental guidelines set by the Institutional Animal Care and Use Committee. […] Tumor volumes were measured along three orthogonal axes (x, y, and z) and calculated as tumor volume=(xyz)/2. […]
Experiment [2] concerns CD45^+ cell infiltration in C26 tumor. Nature of the experiment: Immunohistochemistry of CD45 positive cells in tumors of treated mice. It counts as in vivo. Also on record: dose or concentration left out as unconfirmed. Particulars: C26 tumor in Balb/c mice, tumor taken on second day of second weekly treatment, cyclophosphamide i.p., TLRL i.v., FIG. 2.
Method: Histological characterization of CD45 positive cells were performed in treated mice. Tumor samples were obtained from mice treated with TLRL, cyclophosphamide or TLRL/cyclophosphamide. Histological sections were counterstained with hematoxylin and eosin (H&E).
Balb/c mice, 6-8 weeks of age, female, purchased from Vital River Beijing, C26 cells were injected s.c. in the back of anesthetized mice. Treatment was started when tumor volumes reached 100-120 mm^3, i.p. injections of cyclophosphamide or i.v. injections of 1.6 g of TLRL (resiquimod) or combination were given once weekly. On second day of second treatment, tissue specimens of the tumor from treated mice were surgically removed, fixed in 4% buffered formaldehyde for 24 h, processed into paraffin, then sectioned at 5 μm. For immunohistochemistry, tissue sections were deparaffinised followed by antigen-retrieval in Tris-EDTA buffer (0.01 M pH 9.0) at high temperature (water bath, 30 minutes at 98° C.). […] After washing with PBS three times, secondary antibody goat antibody rat HPR was applied. Standard DAB (3,3′-diaminobenzidine) kit was used for visualization and section was counterstained with H&E used according to the protocols recommended by the manufacturer.
The test system of experiment [3] is IFNα inducible genes MX2, ISG15 and IRF7. Description: IFNα inducible gene expression (quantitative RT-PCR) in draining lymph nodes and spleen of treated mice. It counts as in vivo. The note with it: draining LNs and spleen of C26 tumor-bearing Balb/c mice, second day of second weekly treatment, FIG. 3. As for the experimental part:
Expression of IFNα inducible genes in dLN and spleen of treated mouse. RNA was isolated from draining lymph nodes and spleen after second treatment with TLRL or cyclophosphamide or combination therapy and relative expression of IFNα inducible genes MX2, ISG15 and IRF7 were determined by quantitative RT-PCR. Values indicate the mRNA expression of indicated IFNα inducible genes relative to housekeeping gene Actin.
Balb/c mice, 6-8 weeks of age, female, purchased from Vital River Beijing, C26 cells were injected s.c. in the back of anesthetized mice. Treatment was started when tumor volumes reached 100-120 mm^3, i.p. injections of cyclophosphamide or i.v. injections of […] of TLRL (resiquimod) or a combination of the treatments were given once weekly. On second day of second treatment, (that is, on the eighth day) draining LNs and spleen from treated mice were dissected and RNA was extracted using TRIzol reagent. After cDNA was reversed-transcribed, the quantitative Real-Time PCR was performed and IFNα inducible gene expression data were normalized relative to geometric mean of […] housekeeping genes (Actin): […]

For `CCOCc1nc2c(N)nc3ccccc3c2n1CC(C)(C)O` [TLRL (resiquimod), 4-amino-2-(ethoxymethyl)-a,a-di-methyl-1H-imidazo[4,5-c]quinoline-1-ethanol], the “effect in reducing tumor volume” value in experiment [1] is reported as “similar”. Further, the “infiltration of CD45^+ cells in tumor microenvironment” value in experiment [2] was “significant numbers of CD45^+ cell were infiltrated”; in experiment [2] (listed as TLRL) it was “increased infiltration of activated immune cells (CD45^+)”. The “IFNα inducible gene expression (MX2, ISG15, IRF7) relative to Actin” value is given as “Upregulating IFNα inducible gene clusters were observed” in experiment [3] and “increased IFNα inducible gene expression” in experiment [3] (listed as TLRL).
Take `O=P1(N(CCCl)CCCl)NCCCO1` (stereo not drawn) [cyclophosphamide]: the “effect in reducing tumor volume” value in experiment [1] is reported as “similar”.
